Data reported in patent US20080260774A1, “Alpha-galactosyl ceramide analogs and their use as immunotherapies” (priority 2007, published 2008).
“Also recorded” adds a separate entry of the source.

Assays:
[1] = tested on: syngeneic lung cancer (TC1) cells; test: Lung cancer model in mice (TC1, IV inoculation); format: in vivo, mouse; conditions: for anti-cancer efficacy compared with C1: IV administration
[2] = tested on: human naïve NKTs (CD161^+CD3^+); test: Cytokine/chemokine secretion by human naïve CD161+CD3+ NKTs co-cultured with autologous immature CD14+ DCs; format: cell-based; conditions: for IFN/IL-4 ratio (TH1/TH2 bias): normalized to DMSO control; for induction of IL-3, GM-CSF and IL-15 / secretion of IFN-γ: 10 μg/ml, 18 hour culture; for secretion of IFN-γ: compared with α-GalCer
BALB/c mice [3] = test: Expansion/activation of mouse splenocyte subpopulations 72 h after injection; format: in vivo; conditions: for total and mature DCs: FIGS. 26B, 28B and 30B; for total and mature DCs / activation of B cells: compared with C1; for activation of B cells: IM route; for CD8^+/CD4^+ ratio: FIGS. 26H, 28H and 30H; for B cell expansion: FIGS. 26E, 28E and 30E
tetanus toxoid (TT) = conditions: mouse, in vivo
BALB/c mice [4] = test: Mouse serum cytokines/chemokines after IV, SubQ or IM injection; format: in vivo; conditions: for serum IL-2, IL-12, MIP-1β and MCP-1: IV administration
[5] = tested on: syngeneic breast cancer (4T1); test: Breast cancer model in mice (4T1, SubQ inoculation); format: in vivo, mouse
[6] = tested on: extracellular domain of the M2 protein of the H1N1 subtype of the Influenza A virus; conditions: mouse, in vivo
naïve CD161^+/CD3^+ NKTs = test: Human NKT TCR activation (phosphoproteins), glycolipid presented by HeLa, HeLa-CD1d or iDCs, 10 μg/ml; format: cell-based; conditions: for intracellular phospho-CD3ε / phospho-ERK1/2: 10 μg/ml
[7] = tested on: FLU-A virus serotype H1N1 (WSN); test: Influenza virus H1N1 (WSN) infection in BALB/c mice; conditions: mouse, in vivo
Sphingomonas capsulata = test: Antibacterial efficacy in Sphingomonas capsulata infected mice; format: in vivo, mouse; conditions: for CFU numbers in liver: 100 μg/kg IP, 24 hour after bacterial infection
Text: Sphingomonas capsulata is a common environmental bacterial strain that is found in many places such as the air and water. It can be easily identified on nutrient agar plates because of its yellow colony color. […] Since the antibacterial activities of glycolipid antigens are mediated through the activation of NKT cells by glycolipid bound-CD1-d molecules, evaluation of the antibacterial efficacies using the disease model of Sphingomonas capsulata infection will focus on the impact of the NKT mediated pathway that is activated by glycolipid bindings. Six to eight week old female C57BL/6 mice were injected IP with Sphingomonas capsulate cells. […] Twenty-four hours after bacterial infection, livers were removed from mice and homogenized. Colony formation units (CFU) of Sphingomonas capsulate in liver homogenates were determined by plating diluted samples on nutrient plates. Colonies were counted after incubation for 48 hours at 37° C. […] To confirm the antibacterial efficacies of these α-GalCer analogs, another study was conducted to repeat the study by treating infected mice with 50 μg/kg in the same disease model. […] Six to eight week old female C57BL/6 mice were injected IP with 5×10^8 Sphingomonas capsulate cells. Mice were grouped into treatment and control groups with 4-6 mice per group. Four hours after the infection, mice in the treatment group were injected IP with testing α-GalCer analogs at 50 or 100 μg/kg, and the control group mice were injected with same volumes of PBS. Twenty-four hours after bacterial infection, mice from all groups were sacrificed. Livers were removed from mice and homogenized in 0.9% NaCl, 0.02% Tween 80 using tissue homogenizers. Colony formation units (CFU) of Sphingomonas capsulate in liver homogenates were determined by plating diluted samples on nutrient plates. Colonies were counted after incubation for 48 hours at 37° C.

[8] = tested on: FLU-A virus serotype H1N1 (WSN); test: Cytopathetic effect / virus titer in MDCK cells infected with H1N1 (WSN); format: cell-based
Protocol: FIG. 60(A-B) show the cytopathetic effect (CPE) of Madin-Darby canine kidney (MDCK) cells in vitro. MDCK cells were pretreated with vehicle, α-GalCer or one of the α-GalCer analogs C13, C14 or C16 at 10 μg/ml for four hours, followed by infection with FLU-A virus serotype H1N1 (WSN) at 10TCID50.
BALB/c mice were treated via intranasal route with control, α-GalCer (C1) or the α-GalCer analogs C13, C14 or C16 at one hour prior to virus challenge with H1N1 (WSN). […] In general, certain α-GalCer analogs may exert direct anti-viral effects, or act indirectly via immune stimulation. […] MDCK cells were pretreated with vehicle, α-GalCer or one of the α-GalCer analogs C13, C14 or C16 at 10 μg/ml for four hours, followed by infection with FLU-A virus serotype H1N1 (WSN) at 10TCID50.

[9] = tested on: primary naïve human iNKTs; test: Cytokine production by primary naïve human iNKTs cultured with autologous immature DCs; format: cell-based; conditions: compared with C11
[10] = tested on: H5 of avian influenza viruses (pHA); format: in vivo, mouse; conditions: mouse, in vivo
C57BL/6 mice = test: Expansion of NKT subsets in spleens of C57BL/6 mice; format: in vivo; conditions: C57BL/6 Wt, 72 h post IV injection, 0.1 μg per mouse

Compound: CCCCCCCCCCCCCCCCCCCCCCCCCC(=O)N[C@@H](CO[C@H]1O[C@H](CO)[C@H](O)[C@H](O)[C@H]1O)[C@H](O)[C@H](O)CCCCc1ccccc1 [C12]
- anti-cancer efficacy compared with C1 [1]: significantly greater anti-cancer efficacy than C1
- IFN/IL-4 ratio (TH1/TH2 bias) [2]: more TH1-biased
- total and mature DCs (BALB/c mice [3]): significantly greater rises in total and mature DCs than C1
- expansion/activation of NKs and NKTs (BALB/c mice [3]; FIGS. 26C-D, 28C-D and 30C-D): best capacity for expansion/activation of NKs and NKTs
- CD8^+ T cell expansion/activation (BALB/c mice [3]; FIGS. 26F, 28F and 30F): more active than C1
- activation of B cells (BALB/c mice [3]): stronger activations of B cells than C1

Compound: CCCCCCCCCCCCCC[C@@H](O)[C@@H](O)[C@H](CO[C@H]1O[C@H](CO)[C@H](O)[C@H](O)[C@H]1O)NC(=O)CCCCCCCc1ccccc1 [C11]
- antibody response relative to conventional vaccine (tetanus toxoid (TT)): ~2 fold
- durability of adjuvant effects (tetanus toxoid (TT)): remarkably durable
- level of antibody after delayed boost compared with TT+Alum (tetanus toxoid (TT)): twice as high as those given TT+Alum
- serum IL-2, IL-12, MIP-1β and MCP-1 (BALB/c mice [4]): striking rises in IL-2, IL-12, MIP-1β and MCP-1
- tumor nodules on the lung surface ([1]; sacrificed on day 16 after tumor inoculation): reduced number of tumor nodules on the lung surface
- tumor size ([5]; 16 days after treatment): reduced tumor size
- tumor growth and survival compared to control ([5]; SubQ delivery): able to suppress tumor growth and prolong survival as compared to control
- induction of IL-3, GM-CSF and IL-15 [2]: greater induction of IL-3, granulocyte/macrophage colony-stimulating factor (GM-CSF), and IL-15
- secretion of IFN-γ [2]: significantly greater secretion of IFN-γ than α-GalCer
- adjuvant effect (comparison) [6]: best adjuvant effect which was equivalent to complete Freund's adjuvant (CFA)
- titer relative to C1 [6]: 3 fold
- CD8^+/CD4^+ ratio (BALB/c mice [3]): more potent than C1
- activation of B cells (BALB/c mice [3]): stronger activations of B cells than C1
- CD8^+ T cells (BALB/c mice [3]; SubQ route): more activity than C1
- B cell expansion/activation (BALB/c mice [3]; mouse, in vivo): significant activities
- NK and NKT expansion/activation (BALB/c mice [3]; mouse, in vivo): comparable activities as C1
- TCR activation (naïve CD161^+/CD3^+ NKTs; CD1d-dependent, HeLa-CD1d or DCs): stronger in TCR activation than compounds C1 and C17
- intracellular phospho-CD3ε (naïve CD161^+/CD3^+ NKTs; presented by DCs): 21.3 folds
- intracellular phospho-CD3ε (naïve CD161^+/CD3^+ NKTs; presented by HeLa-CD1d cells): 10 folds of control
- phospho-ERK1/2 (naïve CD161^+/CD3^+ NKTs; with DCs): 48.3 folds
- phospho-ERK1/2 (naïve CD161^+/CD3^+ NKTs; with HeLa-CD1d cells): 14.6 folds increase
- survival [7]: significantly enhanced survival
- antibacterial efficacies (CFU in liver) (Sphingomonas capsulata; 50 μg/kg): significant in comparison to the untreated group
- difference in the values of the CFU per gram liver among efficacious groups (Sphingomonas capsulata; 50 μg/kg): not statistically significant
- CFU numbers in liver (Sphingomonas capsulata): significantly lower than the control group

Compound: CCCCCCCCCCCCCCCCCCCCCCCCCC(=O)N[C@@H](CS[C@H]1O[C@H](CO)[C@H](O)[C@H](O)[C@H]1O)[C@H](O)[C@H](O)CCCCCCCCCCCCCC [C4]
- IFN/IL-4 ratio (TH1/TH2 bias) [2]: more TH2-biased

Compound: CCCCCCCCCCCCCC[C@@H](O)[C@@H](O)[C@H](CO[C@H]1O[C@H](CO)[C@H](O)[C@H](O)[C@H]1O)NC(=O)CCCCCc1ccccc1 [C10]
- anti-cancer efficacy compared with C1 [1]: significantly greater anti-cancer efficacy than C1
- induction of IL-3, GM-CSF and IL-15 [2]: greater induction of IL-3, granulocyte/macrophage colony-stimulating factor (GM-CSF), and IL-15
- B cell expansion (BALB/c mice [3]): more active than C1

Compound: CCCCCCCCCCCCCC[C@@H](O)[C@@H](O)[C@H](CO[C@H]1O[C@H](CO)[C@H](O)[C@H](O)[C@H]1O)NC(=O)CCCCCCCCCCc1ccccc1 [C16]
- IFN-γ/IL-4 ratio (TH1/TH2 bias) (BALB/c mice [4]; 2 hours, IV route, compared with C1): less TH2 responses than C1
- serum IL-2, IL-12, MIP-1β and MCP-1 (BALB/c mice [4]): striking rises in IL-2, IL-12, MIP-1β and MCP-1
- serum level of IFN-γ (BALB/c mice [4]; IV route, over 72 hours): level of activity close to that of C1
- anti-cancer efficacy compared with C1 [1]: significantly greater anti-cancer efficacy than C1
- effects on survival compared with C1 ([5]; SubQ delivery): did not differ significantly from that of C1
- suppression of tumor size compared with C1 ([5]; SubQ delivery): significantly greater suppression of tumor size than C1
- tumor growth and survival compared to control ([5]; SubQ delivery): able to suppress tumor growth and prolong survival as compared to control
- induction of IL-3, GM-CSF and IL-15 [2]: greater induction of IL-3, granulocyte/macrophage colony-stimulating factor (GM-CSF), and IL-15
- secretion of IFN-γ [2]: significantly greater secretion of IFN-γ than α-GalCer
- total and mature DCs (BALB/c mice [3]): significantly greater rises in total and mature DCs than C1
- B cell expansion (BALB/c mice [3]): most effective in B cell expansion
- CD8^+/CD4^+ ratio (BALB/c mice [3]): more potent than C1
- activation of B cells (BALB/c mice [3]): stronger activations of B cells than C1
- expansion of splenocytes (BALB/c mice [3]; IV administration, 72 hours): greater potency than C1
- CD4^+ T cells (BALB/c mice [3]; SubQ route): more active over control
- CD8^+ T cells (BALB/c mice [3]; SubQ route): more activity than C1
- CD8^+ T cell expansion/activation (BALB/c mice [3]; mouse, in vivo): comparable activities as C1; also recorded: more active than C1
- NK and NKT expansion/activation (BALB/c mice [3]; mouse, in vivo): comparable activities as C1
- expansion/activation of NKs and NKTs (BALB/c mice [3]; mouse, in vivo): best capacity for expansion/activation of NKs and NKTs
- entry/replication of H1N1 virus (virus titer) [8]: slight inhibition of the entry/replication of H1N1 virus in vitro
- cumulative proportion of survival ([7]; ip): prolonged survival
- antibacterial efficacies (CFU in liver) (Sphingomonas capsulata; 50 μg/kg): significant in comparison to the untreated group
- CFU numbers in liver (Sphingomonas capsulata): significantly lower than the control group

Compound: CCCCCCCCCCCCCC[C@@H](O)[C@@H](O)[C@H](CO[C@H]1O[C@H](CO)[C@H](O)[C@H](O)[C@H]1O)NC(=O)CCCCCCCCCCc1ccc(-c2ccccc2)cc1 [C26]
- IFN-γ/IL4 ratio [9]: higher IFN-γ/IL4 ratio
- IL-2 [9]: higher levels of IL-2
- adjuvant activities in enhancing the anti-HAc antibody titer [10]: better adjuvant activities than the others in enhancing the antibody titer
- anti-HA-specific IgG antibody [10]: enhanced
- effectiveness as adjuvant [10]: particularly effective as adjuvants
- total number of NKTs and its two subtypes NKT1 and NKT2 (C57BL/6 mice): increase of total number of NKTs
